From patent publication US20130137753A1, “METHODS AND COMPOSITIONS FOR THE DIAGNOSIS AND TREATMENT OF BREAST CANCER” (UNIVERSITY OF SOUTH ALABAMA, priority 2010, published 2013)

How the values were obtained:
[1] = system: Merlin; assay: Western blot of Merlin in MDA-MB-435 cells treated with Lactacystin and wortmannin; format: cell-based; conditions: combined treatment Lactacystin 10-25 μM and wortmannin 100 nM, FIG. 4E
Procedure: FIG. 4 depicts OPN targeting Merlin for Akt-mediated proteasomal degradation. FIG. 4A is a Western blot of SUM159 cells transfected with Merlin and treated with OPN and Lactacystin. […] The smear represents ubiquitinated Merlin. FIG. 4D is a Western blot of SUM159 transfected with HA-ubiquitin and Merlin and treated with OPN (100 ng/ml), Lactacystin (10 μM) and Akt inhibitor IV. FIG. 4E is a Western blot of MDA-MB-435 cells treated with the PI-3-kinase inhibitor, wortmannin and Lactacystin. Cells were pre-treated with Wortmannin (100 nM) for 1 hr followed by Lactacystin for 4.5 hours.
The converse was seen when MDAMB-435 cells were treated with the proteasome inhibitor, Lactacystin (10-25 μM) and the PI-3-kinase inhibitor, wortmannin (100 nM). […] Silencing the expression of OPN reduced the overall levels of ubiquitinated Merlin; in combination with Akt inhibitor and Lactacystin, abrogating OPN expression caused a notable decrease in the ubiquitinated Merlin (FIG. 4F).

[2] = system: Merlin; assay: Immunoprecipitation of Merlin and anti-HA blot for ubiquitination in SUM159 cells transfected with HA-ubiquitin and Merlin; format: cell-based, human; conditions: SUM159 cells constitutively expressing Merlin, OPN 100 ng/ml, Lactacystin 10 μM, FIG. 4D
Procedure: (§1) Immunoprecipitation—Cells were transfected with pcDNA3.1 HA-ubiquitin alone or in combination with pIRES2-myc-Merlin and incubated for 24 hrs. Cells were treated with 10 μM Lactacystin, 100 ng/ml OPN and 10 μM AKT inhibitor IV for 12 hrs and lysed in NP-40 buffer. The lysate was immunoprecipitated with anti-Merlin antibody and the immunoprecipitate was assessed by immunoblotting.
To assess the role of activated Akt induced by OPN, cells were co-treated with an Akt inhibitor. SUM159 cells were transfected with HA-ubiquitin and Merlin and treated with OPN (100 ng/ml), Lactacystin (10 μM) and Akt inhibitor IV. Cell lysate (1 mg) harvested in NP40 buffer was immunoprecipitated for Merlin. The immunoprecipitate was immunoblotted with anti-HA antibody. […] Merlin ubiquitination was enhanced when co-treated with OPN and was abolished in the presence of Akt inhibitor re-affirming the role of Akt downstream of OPN in modulating the stability of Merlin (FIG. 4D).

[3] = system: Merlin; assay: Immunoprecipitation of endogenous Merlin and anti-HA blot for ubiquitination in MCF10AT cells transfected with HA-ubiquitin; format: cell-based, human
Procedure: as §1
To examine if OPN can induce ubiquitination of endogenous Merlin leading to its proteasomal degradation, MCF10AT cells were transfected with a HA-ubiquitin expressing construct. MCF10AT cells were transfected with HA-ubiquitin and treated with OPN, Lactacystin and Akt inhibitor IV. Cell lysate (2 mg) harvested in NP40 buffer was immunoprecipitated overnight for endogenous Merlin. The immunoprecipitate was immunoblotted with anti-HA antibody. Merlin and GAPDH levels from the cell lysates were inputs for the experiment.

[4] = system: Akt; assay: Western blot of phospho-Akt and Merlin in MCF10AT cells treated with OPN and Akt inhibitor IV; format: cell-based, human; conditions: FIG. 4B
From the text: (§2) Western Blotting Analysis—Immunoblotting was done with anti-Merlin (Santa Cruz Biotech, Santa Cruz, Calif.), phospho-Ser473-Akt (Cell Signaling, Danvers, MAT), total Akt (Cell Signaling), anti-mouse HA (Santa Cruz), antiphospho-Ser315 Merlin, and anti-GAPDH (Cell Signaling). Anti-rabbit or anti-mouse HRP conjugated secondary antibody was used for detection and blots were developed with SuperSignal substrate (Pierce, Rockford, Ill.) and exposed using a Fuji LAS3000 imager.
(§3) Transfection and Drug Treatment—Cells were transfected with empty vector, Merlin (WT; wild-type) or T230A S315A Merlin mutant and treated with clasto-Lactacystin β-Lactone (Sigma, St. Louis, Mo.) for 2 hours. Recombinant OPN (100 ng/mL) (R&D Systems, Minneapolis, Minn.) was added and cells were lysed after 6 hours. Where indicated, cells were first treated with Akt inhibitor IV (Calbiochem) in serum free media for 30 min followed by 100 ng/mL human rOPN for 24 hours.
OPN interacts with a variety of cell surface receptors including CD44 and multiple integrins to activate signaling via the Akt pathway (31,38,39). […] The levels of total Akt remain unaltered. MCF10AT cells were also treated with Akt inhibitor IV in addition to OPN. […] Phosphorylation of Merlin via Akt targets it for degradation by the proteasome (15,40,41).

[5] = system: Merlin; assay: Western blot of phosphorylated Merlin (Serine 315) in SUM159 cells transfected with Merlin and treated with OPN; format: cell-based, human; conditions: SUM159 cells transfected with Merlin, treated with OPN, FIG. 5A
From the text: as §2
Lysate from SUM159 cells transfected with Merlin and treated with OPN was probed for total Merlin and phosphorylated Merlin (Serine 315). GAPDH was used as a loading control. […] Phosphorylation of Merlin at this residue has been reported to target it for proteasome-mediated degradation (15,40). In particular, […] of Serine 315 and Threonine 230 makes Merlin refractory to OPN. SUM159 cells were transfected with Merlin (WT) or the T230A/S315A Merlin mutant and treated with OPN and Lactacystin. Cell lysates were probed for total Merlin. GAPDH was used as a loading control. Mutant Merlin (T230A S315A) is not degraded in response to OPN, whereas wild-type Merlin is degraded by OPN. […] It was further determined that while OPN is able to induce degradation of Merlin, the Merlin mutant T230A S315A (that cannot be phosphorylated by Akt) is resistant to the effects of OPN (FIG. 5B). […]

[6] = system: Merlin; assay: Western blot of Merlin protein levels in SUM159 cells transfected with Merlin cDNA and treated with recombinant OPN and Lactacystin; format: cell-based, human; conditions: SUM159 cells transfected with Merlin cDNA, recombinant OPN 100 ng/mL, FIG. 4A
From the text: as §2, §3
Akt signaling initiated downstream of OPN may regulate Merlin. To examine the effects of OPN on the post-translational regulation of Merlin, specifically the stability of Merlin protein, SUM159 breast cancer cells were transfected with Merlin cDNA and treated with recombinant OPN.

Compound | Merlin expression [1] | Merlin ubiquitination [2] | ubiquitination of endogenous Merlin ([3]; co-treatment with Akt inhibitor in the presence of OPN) | levels of Akt phosphorylation ([4]; Akt inhibitor IV in addition to OPN) | levels of Merlin ([4]; Akt inhibitor IV in the presence of OPN) | phosphorylation of Merlin at Ser315 [5] | protein levels of Merlin [6] | ubiquitination of endogenous Merlin (smear) ([3]; MCF10AT cells transfected with HA-ubiquitin, FIG. 4C) | Akt activation (phosphorylation of Akt to phospho-Akt) ([4]; recombinant OPN alone) | levels of Merlin ([4]; recombinant OPN alone)
CC(=O)N[C@@H](CSC(=O)[C@]1([C@@H](O)C(C)C)NC(=O)[C@H](C)[C@@H]1O)C(=O)O | restored Merlin expression |  |  |  |  |  |  |  |  | 
Akt inhibitor IV |  | abolished | abolished | decreased | restored |  |  |  |  | 
OPN: Recombinant OPN (R&D Systems), human rOPN; secreted phosphoglycoprotein osteopontin |  | enhanced |  |  |  | phosphorylation of Merlin at the Ser315 position | decrease in the protein levels of Merlin | some ubiquitination | activated Akt | decrease in the levels of Merlin
